Results reported in patent US20060142193A1, “Selective inhibition of rock1 in cardiac therapy” (BAYLOR COLLEGE OF MEDICINE, priority 2004, published 2006).
“Also recorded” adds a separate entry of the source. One block for each molecule: values may come before it.

Columns and labels:
[1] = test system: conditional caspase 3 (iCasp3); test: ROCK1 cleavage in cardiomyocytes infected with Ad-G/iCasp3 (conditional caspase 3) and treated with CID; assay type: cell-based, rat; details: for 130 kDa cleavage fragment of ROCK1: cardiomyocytes infected with Ad-G/iCasp3 and treated with CID
Description: To analyze direct effect of caspase 3 activation on ROCK1 cleavage, the present inventors introduced a conditional caspase 3 via an adenoviral-mediated expression system in cultured rat neonatal cardiomyocytes. The adenoviral vector, Ad-G/iCasp3, has been described previously (Shariat et al., 2001; Mallet et al., 2002). This vector expresses a conditional caspase 3 (iCasp3), in which the human caspase 3 was fused to a modified FK506-binding domain, containing a binding site for a non-toxic chemical inducer of dimerization (CID), AP20187. Addition of CID leads to the aggregation and activation this caspase, and a rapid apoptosis in prostate cancer cells (Shariat et al., 2001; Mallet et al., 2002). This is depicted in FIG. 8C.
Cell culture, plasmid constructs, and recombinant adenoviruses. Neonatal rat cardiomyocytes were isolated and cultured in DMEM/F12 medium (1:1) with 10% horse serum (DF10); cells were ready for transfection or virus infection 40 hours after plating. For immunostaining, cells were cultured on pre-coated (with 0.2% gelatin) coverslips. Transfections were performed using LipofectAMINE 2000 (Invitrogen) with Opti-MEM I Reduced Serum Medium (Invitrogen). After 6 hr or O/N, cells were cultured in DF10. With human embryonic kidney (HEK) A293T cells, cells were cultured in DMEM with 10% fetal bovine serum. The cDNA for full length human ROCK-1 cloned into the pCAG-myc vector (pCAG-ROCK-1) was kindly provided by Dr. Narumiya. All ROCK-1 and mutant constructs were tagged with a Myc epitope at the amino-terminus. The Asp718-MscI cDNA fragment encoding ROCKΔ1 mutant (residues 1-1080) was also cloned into the pCAG-myc vector (pCAG-ROCKΔ1) (Ishizaki et al., 1997). A signal lysine at residue 105 was replaced by alanine to generate a kinase deficient mutant, pCAG-ROCK-1KD. The adenoviral vector, Ad-G/iCasp 3, expressing conditional caspase 3, was generously provided by Drs. David Spencer and Kevin Slawin at Baylor College of Medicine. […]

[2] = test system: angiotensin II-infused rats; details: administration of fasudil; cited from earlier work
protein kinases A and C = details: lower affinity than that for Rho kinase; cited from earlier work
[3] = test system: myeline basic protein (MBP) kinase (MBP-kinase); test: Kinase-Glo luminescent kinase assay; assay type: biochemical; details: SRF-N as substrate, ATP
Experimental: In a particular embodiment, the Kinase-Glo luminescent kinase assay from Promega (Madison, Wis.) is employed, which comprises a method of measuring kinase activity by quantifying the amount of ATP remaining in solution following a kinase reaction. […] In additional embodiments, the Km and/or kcat for SRF-N against MBP-Kinase and the IC50 or Ki for PH domain are measured, such as by standard methods in the art.
FIG. 25B illustrates the role of ROCK in processing of its substrates in the presence of ATP.

[4] = test system: Dahl salt-sensitive hypertensive rats; details: administration to Dahl salt-sensitive hypertensive rats; cited from earlier work
early chick embryos = details: treated early chick embryos; cited from earlier work
[5] = test system: human growth hormone (hGH) transgene; test: Cardiac-specific RU486-inducible gene-switch expression of human growth hormone in bi-transgenic mice; assay type: in vivo, mouse; details: after 4 days of administration, dose-dependent, estimated
Experimental: Expression of the transgene is induced in all 4 chambers of the bi-transgenic hearts by administration of RU486 for 4 days. […] The serum level of hGH was measured by radioimmunoassay.

ROCK1 = ROCK1 cleavage in doxorubicin-treated cultured neonatal rat cardiomyocytes (Western blot); assay type: cell-based
Description: To determine if ROCK1 is cleaved by caspase 3 in apoptotic cardiomyocytes, the present inventors subjected cultured rat neonatal cardiomyocytes to doxorubicin treatment, which is a potent apoptotic inducer. The 130 kDa cleavage fragment of ROCK1 was detected in doxorubicin-treated myocytes as well as the cleaved PARP. In contrast, cleavage of ROCK2 was not observed. In addition, cleavage of ROCK1 is caspase 3-dependent, as the 130 kDa species was not detected in the presence of caspase 3 inhibitor, Z-VAD.
Cell culture, plasmid constructs, and recombinant adenoviruses. Neonatal rat cardiomyocytes were isolated and cultured in DMEM/F12 medium (1:1) with 10% horse serum (DF10); cells were ready for transfection or virus infection 40 hours after plating. For immunostaining, cells were cultured on pre-coated (with 0.2% gelatin) coverslips. Transfections were performed using LipofectAMINE 2000 (Invitrogen) with Opti-MEM I Reduced Serum Medium (Invitrogen). After 6 hr or O/N, cells were cultured in DF10. With human embryonic kidney (HEK) A293T cells, cells were cultured in DMEM with 10% fetal bovine serum. The cDNA for full length human ROCK-1 cloned into the pCAG-myc vector (pCAG-ROCK-1) was kindly provided by Dr. Narumiya. All ROCK-1 and mutant constructs were tagged with a Myc epitope at the amino-terminus. The Asp718-MscI cDNA fragment encoding ROCKΔ1 mutant (residues 1-1080) was also cloned into the pCAG-myc vector (pCAG-ROCKΔ1) (Ishizaki et al., 1997). A signal lysine at residue 105 was replaced by alanine to generate a kinase deficient mutant, pCAG-ROCK-1KD. The adenoviral vector, Ad-G/iCasp 3, expressing conditional caspase 3, was generously provided by Drs. David Spencer and Kevin Slawin at Baylor College of Medicine. Addition of CID, AP20187 (50 nM, 24 hr), provoked the aggregation and activation of caspase 3 as well as rapid apoptosis (Shariat et al., 2001; Mallet et al., 2002).
Western blot and Malachite green assay. Anti-ROCK-1, caspase 3, PARP, His, α-actin antibodies (Santa Cruz), anti-phospho-AKTser473 (Cell Signaling) and anti-RTEN (Upstate) were purchased. Protein samples for Western blot were prepared and separated as described earlier (Chang et al., 2000). Even loadings were confirmed by Ponceau staining and antibody probed for actin. PTEN activity was evaluated by Malachite green assay (Upstate). 500 μg of cell lysate protein was used for immunoprecipitation.

caspase 3 = test: Ceramide-induced caspase 3 activation and apoptosis in cardiomyocytes (caspase 3 sensor, fluorescent staining); assay type: cell-based, rat; details: without siRNA treatment
Experimental: Apoptosis assay and immunofluorescence analysis. Apoptosis was evaluated using caspase 3 activity and poly(ADP-ribose) polymerase (PARP) cleavage with Western blot in human and mouse heart tissues. With regard to apoptotic cultured neonatal cardiomyocytes, a caspase 3 sensor (BD Biosciences) was introduced to detect the onset of caspase 3 activity (FIG. 9). The vector encodes EYFP (enhanced yellow fluorescent protein) fused with NES (nuclear export signal) and NLS (nuclear localization signal). A caspase 3 specific cleavage site is located between EYFP and NES. […] Upon induction of apoptosis, the export signal is removed by active caspase 3, which triggers the redistribution of EYFP from the cytosol to the nucleus via NLS. The quantification was performed by counting the number of transfected cells with the nuclear localization of fluorescent fusion protein over the total transfected cells. Alexa Fluor 594 phalloidin staining (Molecular Probes) and DAPI staining were applied for F-actin and cellular nuclei visualization, respectively.
siRNAs application for ROCK-1 and PTEN knockdown and ceramide-induced apoptosis. To knockdown ROCK-1 expression in neonatal rat cardiomyocytes, 100 nM siRNA (Ambion) was used with co-transfection of caspase 3 sensor vector as described above. Same amount of siRNA specific for PTEN (Ambion) was applied to human HEK cells. […]

[6] = doxorubicin-treated myocytes, Western blot

cleavage of SRF ([1]; Ad-G/iCasp3 in the presence of CID, data not shown): not detectable
130 kDa cleavage fragment of ROCK1 [1]: detected
Molecule: CC[C@H](C(=O)N1CCCC[C@H]1C(=O)O[C@H](CCc1ccc(OC)c(OC)c1)c1cccc(OCC(=O)NCC(CNC(=O)COc2cccc([C@@H](CCc3ccc(OC)c(OC)c3)OC(=O)[C@@H]3CCCCN3C(=O)[C@@H](CC)c3cc(OC)c(OC)c(OC)c3)c2)CN(C)C)c1)c1cc(OC)c(OC)c(OC)c1 [AP20187]
130 kDa cleavage fragment of ROCK1 ([1]; listed as CID): cleavage of ROCK-1 only in the presence of CID

Molecule: O=S(=O)(c1cccc2cnccc12)N1CCCNCC1 [fasudil]
effect on angiotensin II-induced cardiovascular changes [2]: suppresses angiotensin II-induced coronary vascular hypertrophy, endothelial dysfunction and cardiomyocyte hypertrophy

inhibition activity against MBP-kinase [3]: inhibition activity
Molecule: C[C@@H](N)[C@H]1CC[C@H](C(=O)Nc2ccncc2)CC1 [Y27632]
affinity for protein kinases A and C relative to Rho kinase (protein kinases A and C): about 200 times
effect on cardiac hypertrophy and remodeling [4]: regression of cardiac hypertrophy and decreased pathological remodeling
expression of cardiac α-actin (early cardiac differentiation marker) (early chick embryos): precocious expression of cardiac α-actin was observed

Molecule: CC#C[C@]1(O)CC[C@H]2[C@@H]3CCC4=CC(=O)CCC4=C3[C@@H](c3ccc(N(C)C)cc3)C[C@@]21C [RU486]
inducible level of hGH in the transgenic heart versus the basal level [5]: 100 to 1000 fold

Molecule: COc1cccc2c1C(=O)c1c(O)c3c(c(O)c1C2=O)C[C@@](O)(C(=O)CO)C[C@@H]3O[C@H]1C[C@H](N)[C@H](O)[C@H](C)O1 [doxorubicin]
cleavage of ROCK2 (ROCK1; doxorubicin-treated myocytes): not observed
130 kDa cleavage fragment of ROCK1 (ROCK1; [6]): detected; also recorded: revealed cleavages
cleaved PARP (ROCK1; [6]): detected; also recorded: revealed cleavages
cleavage of SRF (ROCK1; doxorubicin-treated neonatal cardiomyocytes, data not shown): not detectable

Molecule: ceramide
induction of caspase 3 activation and cellular apoptosis (caspase 3): strongly induced caspase 3 activation

Molecule: Z-VAD
130 kDa ROCK1 species in presence of caspase 3 inhibitor (ROCK1; doxorubicin-treated myocytes plus inhibitor): not detected; also recorded: blocked the cleavage
